Measurements published in paper PMC7311170, “Moyamoya disease factor RNF213 is a giant E3 ligase with a dynein-like core and a distinct ubiquitin-transfer mechanism” (eLife, 2020).

Assays:
[1] = target: T1, RNF213 (mouse, full-length) (Mus musculus, UniProt E9Q555); experiment: cryo-EM structure; type: binding; settings: co-purified ATP, Mg; bound to catalytically inactive AAA2, contacts from AAA3
T1 construct: full length, 5148 residues, 584 kDa, C-terminal Gly3-His10 tag kept; codon-optimised, High Five insect cells; monomer; modelled residues 476-5148
T1 sequence (E9Q555 whole entry, the tested form may be a part): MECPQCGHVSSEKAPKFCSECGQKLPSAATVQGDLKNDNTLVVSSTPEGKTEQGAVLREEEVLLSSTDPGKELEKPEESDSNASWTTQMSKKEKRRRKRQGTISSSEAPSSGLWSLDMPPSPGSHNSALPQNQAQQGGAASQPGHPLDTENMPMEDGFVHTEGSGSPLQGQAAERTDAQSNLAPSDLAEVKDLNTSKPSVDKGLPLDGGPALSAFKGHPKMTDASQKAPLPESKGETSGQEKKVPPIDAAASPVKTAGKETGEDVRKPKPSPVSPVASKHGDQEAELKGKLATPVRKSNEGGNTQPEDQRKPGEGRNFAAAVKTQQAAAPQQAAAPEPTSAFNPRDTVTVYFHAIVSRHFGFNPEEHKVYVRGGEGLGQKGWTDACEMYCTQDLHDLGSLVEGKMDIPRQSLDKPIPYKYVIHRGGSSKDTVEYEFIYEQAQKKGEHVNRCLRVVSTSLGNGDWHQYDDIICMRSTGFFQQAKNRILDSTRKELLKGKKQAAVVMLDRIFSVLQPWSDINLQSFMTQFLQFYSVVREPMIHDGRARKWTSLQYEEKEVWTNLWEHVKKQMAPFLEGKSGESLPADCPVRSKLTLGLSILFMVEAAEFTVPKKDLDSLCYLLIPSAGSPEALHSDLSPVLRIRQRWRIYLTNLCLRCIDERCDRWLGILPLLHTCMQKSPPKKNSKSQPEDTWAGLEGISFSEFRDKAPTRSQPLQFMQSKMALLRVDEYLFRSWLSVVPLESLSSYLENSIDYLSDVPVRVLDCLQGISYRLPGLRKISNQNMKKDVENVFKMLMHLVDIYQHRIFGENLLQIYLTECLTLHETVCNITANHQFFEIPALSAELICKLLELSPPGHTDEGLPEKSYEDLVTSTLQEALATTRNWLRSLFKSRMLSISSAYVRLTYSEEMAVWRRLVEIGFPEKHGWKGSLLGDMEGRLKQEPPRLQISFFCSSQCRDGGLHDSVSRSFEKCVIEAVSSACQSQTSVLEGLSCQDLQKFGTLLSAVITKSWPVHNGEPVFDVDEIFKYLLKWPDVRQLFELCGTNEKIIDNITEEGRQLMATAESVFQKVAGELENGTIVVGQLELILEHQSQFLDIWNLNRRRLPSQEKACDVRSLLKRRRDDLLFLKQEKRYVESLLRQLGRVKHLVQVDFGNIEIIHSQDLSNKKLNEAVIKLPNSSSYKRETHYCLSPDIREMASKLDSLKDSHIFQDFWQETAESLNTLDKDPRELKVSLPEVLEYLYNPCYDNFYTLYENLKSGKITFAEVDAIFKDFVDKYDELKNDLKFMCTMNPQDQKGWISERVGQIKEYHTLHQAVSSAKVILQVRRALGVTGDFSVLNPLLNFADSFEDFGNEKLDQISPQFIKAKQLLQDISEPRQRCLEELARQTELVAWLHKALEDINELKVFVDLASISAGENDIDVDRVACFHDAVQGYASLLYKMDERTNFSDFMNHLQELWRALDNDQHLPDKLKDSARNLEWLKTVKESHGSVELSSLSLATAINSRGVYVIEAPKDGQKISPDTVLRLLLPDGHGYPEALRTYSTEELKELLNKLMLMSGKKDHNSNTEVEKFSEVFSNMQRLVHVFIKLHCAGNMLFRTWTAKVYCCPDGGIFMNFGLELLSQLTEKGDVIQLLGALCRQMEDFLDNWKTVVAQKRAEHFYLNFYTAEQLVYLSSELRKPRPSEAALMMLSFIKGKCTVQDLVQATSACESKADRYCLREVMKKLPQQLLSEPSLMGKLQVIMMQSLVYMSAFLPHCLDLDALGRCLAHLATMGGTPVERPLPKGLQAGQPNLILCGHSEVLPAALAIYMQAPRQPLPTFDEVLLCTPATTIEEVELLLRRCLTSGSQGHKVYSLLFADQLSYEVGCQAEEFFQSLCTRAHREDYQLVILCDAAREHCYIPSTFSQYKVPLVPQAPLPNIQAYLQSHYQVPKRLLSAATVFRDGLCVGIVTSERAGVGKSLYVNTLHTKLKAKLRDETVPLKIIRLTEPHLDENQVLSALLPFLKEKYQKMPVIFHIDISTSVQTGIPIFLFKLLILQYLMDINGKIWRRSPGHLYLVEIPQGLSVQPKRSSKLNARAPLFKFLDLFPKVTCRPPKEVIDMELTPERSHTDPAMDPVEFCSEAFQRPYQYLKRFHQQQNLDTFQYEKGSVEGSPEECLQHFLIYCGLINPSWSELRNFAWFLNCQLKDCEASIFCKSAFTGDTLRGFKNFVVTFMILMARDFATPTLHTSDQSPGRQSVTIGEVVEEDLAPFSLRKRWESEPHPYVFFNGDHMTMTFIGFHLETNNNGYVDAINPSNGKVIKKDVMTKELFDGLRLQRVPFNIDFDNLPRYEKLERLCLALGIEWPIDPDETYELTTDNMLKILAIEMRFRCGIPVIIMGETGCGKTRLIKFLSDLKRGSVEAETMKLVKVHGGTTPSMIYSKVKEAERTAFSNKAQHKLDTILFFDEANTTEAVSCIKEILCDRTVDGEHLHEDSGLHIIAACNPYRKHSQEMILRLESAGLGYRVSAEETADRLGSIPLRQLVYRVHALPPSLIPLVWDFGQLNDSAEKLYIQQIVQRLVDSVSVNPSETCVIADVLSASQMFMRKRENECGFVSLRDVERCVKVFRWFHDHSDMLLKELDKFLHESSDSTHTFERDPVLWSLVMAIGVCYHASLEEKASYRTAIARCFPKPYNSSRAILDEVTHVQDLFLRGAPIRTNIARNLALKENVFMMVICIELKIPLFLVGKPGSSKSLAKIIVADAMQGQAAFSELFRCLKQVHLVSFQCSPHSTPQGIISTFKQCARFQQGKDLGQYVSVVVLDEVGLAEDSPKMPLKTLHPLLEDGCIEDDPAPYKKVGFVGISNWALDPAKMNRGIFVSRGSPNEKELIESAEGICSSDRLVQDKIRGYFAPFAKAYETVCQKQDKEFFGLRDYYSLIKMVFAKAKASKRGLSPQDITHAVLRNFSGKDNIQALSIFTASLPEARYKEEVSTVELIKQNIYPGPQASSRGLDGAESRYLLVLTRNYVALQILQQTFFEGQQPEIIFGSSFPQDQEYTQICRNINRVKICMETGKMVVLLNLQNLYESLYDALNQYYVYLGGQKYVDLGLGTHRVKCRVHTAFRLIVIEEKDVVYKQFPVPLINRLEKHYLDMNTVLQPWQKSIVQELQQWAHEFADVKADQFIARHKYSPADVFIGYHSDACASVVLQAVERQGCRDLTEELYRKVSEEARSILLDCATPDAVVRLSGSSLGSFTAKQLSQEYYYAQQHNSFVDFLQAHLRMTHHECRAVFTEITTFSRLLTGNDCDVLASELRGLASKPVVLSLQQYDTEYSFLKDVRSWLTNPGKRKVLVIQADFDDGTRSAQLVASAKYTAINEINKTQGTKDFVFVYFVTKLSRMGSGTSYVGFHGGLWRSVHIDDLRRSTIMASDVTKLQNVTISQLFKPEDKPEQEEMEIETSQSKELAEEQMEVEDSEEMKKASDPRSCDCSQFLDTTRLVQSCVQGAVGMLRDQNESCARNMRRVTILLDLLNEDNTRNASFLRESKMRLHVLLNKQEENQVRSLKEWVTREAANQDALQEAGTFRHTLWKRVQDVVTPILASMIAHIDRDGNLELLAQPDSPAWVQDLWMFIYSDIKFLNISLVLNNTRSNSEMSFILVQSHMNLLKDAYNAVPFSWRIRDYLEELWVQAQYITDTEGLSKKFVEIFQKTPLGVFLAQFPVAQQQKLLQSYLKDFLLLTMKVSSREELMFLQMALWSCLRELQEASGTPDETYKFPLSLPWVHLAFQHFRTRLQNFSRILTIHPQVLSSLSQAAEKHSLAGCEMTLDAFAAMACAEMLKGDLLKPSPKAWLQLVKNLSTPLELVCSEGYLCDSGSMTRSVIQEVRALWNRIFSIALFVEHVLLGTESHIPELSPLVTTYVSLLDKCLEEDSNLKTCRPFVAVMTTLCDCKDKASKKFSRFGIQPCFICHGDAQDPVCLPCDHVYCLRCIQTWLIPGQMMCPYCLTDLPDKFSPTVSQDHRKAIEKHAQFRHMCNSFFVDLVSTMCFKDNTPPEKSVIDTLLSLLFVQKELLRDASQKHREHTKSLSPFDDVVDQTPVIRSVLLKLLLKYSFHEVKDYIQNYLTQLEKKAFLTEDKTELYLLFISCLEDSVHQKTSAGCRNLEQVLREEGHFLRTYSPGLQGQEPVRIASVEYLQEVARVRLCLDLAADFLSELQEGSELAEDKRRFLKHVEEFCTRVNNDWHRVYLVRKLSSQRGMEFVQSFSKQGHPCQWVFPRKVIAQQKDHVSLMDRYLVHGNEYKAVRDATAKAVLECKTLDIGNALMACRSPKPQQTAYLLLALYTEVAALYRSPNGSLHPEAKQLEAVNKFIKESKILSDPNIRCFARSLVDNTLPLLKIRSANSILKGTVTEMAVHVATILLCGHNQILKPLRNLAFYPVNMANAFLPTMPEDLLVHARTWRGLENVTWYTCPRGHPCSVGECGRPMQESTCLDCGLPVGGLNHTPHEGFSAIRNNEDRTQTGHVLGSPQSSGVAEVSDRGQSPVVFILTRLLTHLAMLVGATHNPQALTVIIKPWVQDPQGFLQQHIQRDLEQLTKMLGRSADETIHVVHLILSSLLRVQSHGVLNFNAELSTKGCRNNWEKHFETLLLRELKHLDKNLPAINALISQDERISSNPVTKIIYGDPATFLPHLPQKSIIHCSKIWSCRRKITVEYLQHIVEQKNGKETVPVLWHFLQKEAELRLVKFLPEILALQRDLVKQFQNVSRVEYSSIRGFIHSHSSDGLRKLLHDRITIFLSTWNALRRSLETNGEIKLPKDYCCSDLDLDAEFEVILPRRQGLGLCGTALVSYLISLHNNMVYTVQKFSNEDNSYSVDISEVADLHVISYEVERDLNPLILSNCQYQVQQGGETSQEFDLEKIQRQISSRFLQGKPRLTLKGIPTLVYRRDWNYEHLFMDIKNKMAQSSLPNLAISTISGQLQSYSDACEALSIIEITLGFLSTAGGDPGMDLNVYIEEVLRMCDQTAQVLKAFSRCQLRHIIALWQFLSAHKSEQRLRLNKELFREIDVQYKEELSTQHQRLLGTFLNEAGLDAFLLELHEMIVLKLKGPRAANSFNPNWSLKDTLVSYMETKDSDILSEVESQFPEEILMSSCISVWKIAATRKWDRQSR

[2] = target: T2, RNF213 (mouse, full-length) (Mus musculus, UniProt E9Q555, R4753K); experiment: NADH-coupled ATPase assay; type: biochemical; settings: 2 mM ATP, equimolar MgCl2 added, pH 7.2, 30 C; Moyamoya founder mutant (human R4810K); rate only in figure
T2 construct: full length, 5148 residues, 584 kDa, C-terminal Gly3-His10 tag kept; codon-optimised, High Five insect cells; monomer; modelled residues 476-5148
T2 sequence (E9Q555 whole entry R4753K, the tested form may be a part): as the sequence (E9Q555 whole entry, the tested form may be a part) above, with R4753K counted along it

[3] = target: T1, RNF213 (mouse, full-length); experiment: NADH-coupled ATPase assay; type: biochemical; settings: 2 mM ATP, equimolar MgCl2 added, pH 7.2, 30 C; AAA3 and AAA4 proposed competent sites; rate only in figure

Structure (SMILES): Nc1ncnc2c1ncn2[C@@H]1O[C@H](COP(=O)(O)OP(=O)(O)OP(=O)(O)O)[C@@H](O)[C@H]1O [ATP]
- cryo-EM structure [1]: unambiguously revealed a co-purified ATP molecule that is bound to AAA2
- NADH-coupled ATPase assay [2]: does not significantly alter the enzymatic properties of RNF213 in vitro
- NADH-coupled ATPase assay [3]: ATPase activity of RNF213 is an order of magnitude lower than that of a processive
